{"source": "patent US20220298579A1", "about": "“COMPOSITIONS AND METHODS FOR PREDICTING SUSCEPTIBILITY OF CANCERS TO SYNTHETIC-LETHAL THERAPIES” (University of Florida Research Foundation, Inc., priority 2019, published 2022)", "key": {"[1]": {"test_system": "EBV-infected B-cell lines", "conditions": "50 μM AG490; previously demonstrated (Koganti et al. 2014); cited from earlier work"}, "[2]": {"test_system": "EBV-positive HH514-16 Burkitt lymphoma (BL) cells", "assay": "DR-GFP reporter assay of HR-mediated DSB repair in BL cells", "type": "cell-based, human", "conditions": "increasing concentrations of AG490 (25 μM, 50 μM) added 18 h after DR-GFP + ISce1 transfection, harvested after another 30 h; HH514-16 BL cells", "experimental": "(§1) FIGS. 2A to 2O show STAT3 restricts HR repair through Chk1 in oncovirus-transformed cells. FIGS. 2A to 2K show LCL derived from a healthy subject (FIGS. 2A-2E, 2K) and EBV-positive HH514-16 Burkitt lymphoma (BL) cells (FIGS. 2F-2J, 2K) were transfected with DR-GFP plasmid (FIGS. 2A-2D, 2F-2I) and empty vector pCAGGS (FIGS. 2A, 2F) or ISce1 plasmid (FIGS. 2B-2D, 2G-2I), treated with 25 μM (FIGS. 2C, 2H) or 50 μM (FIGS. 2D, 2I) AG490 (a selective STAT3 inhibitor) after 18 h, and harvested after another 30 h for analysis of GFP-positive cells by flow cytometry (FIGS. 2A-2D, 2F-2I) and immunoblotting for phospho(p)STAT3 and β-actin (FIG. 2K). LCL (FIG. 2E) and BL cells (FIG. 2J) were transfected in parallel with pEGFP to monitor transfection efficiency. […]\n(§2) For assessment of cell-cycle distribution, cells were fixed, permeabilized, and stained with anti-EBNA2 antibody and 50 μg/ml propidium iodide supplemented with 1 μg/ml RNase A, as previously described (Hill, E. R. et al. J Virol 87:11438-11446 (2013)). […] Data were acquired using a FACS Calibur and analyzed using FlowJo software. […]"}, "[3]": {"test_system": "LCL derived from a healthy subject", "assay": "DR-GFP reporter assay of HR-mediated DSB repair in LCL", "type": "cell-based, human", "conditions": "increasing concentrations of AG490 (25 μM, 50 μM) added 18 h after DR-GFP + ISce1 transfection, harvested after another 30 h", "experimental": "as §1, §2"}, "STAT3 phosphorylation": {"test_system": "STAT3 phosphorylation", "conditions": "Janus kinase inhibitor; literature (Koganti 2014; Meydan 1996); cited from earlier work"}, "[4]": {"test_system": "LCL derived from healthy subjects (EBV-transformed cells)", "assay": "Growth of LCL in the presence of Olaparib (live cell enumeration)", "type": "cell-based, human", "conditions": "Olaparib used alone, added at time 0 and every 3-4 days thereafter; all LCL (3 healthy subjects)", "from_the_text": "(§3) FIGS. 3A-3F show LCL derived from 3 healthy subjects (FIGS. 3A-3C) and 3 EBV^+ BL cell lines (HH514-16, Akata, and Raji; FIGS. 3D-3F) grown in the presence of Olaparib (added at time 0 and every 3-4 days thereafter) and enumerated for live cells on indicated days. FIGS. 3G-3N show LCL (FIGS. 3G-3J) and HH514-16 BL cells (FIGS. 3K-3N) transfected with DR-GFP plasmid (FIGS. 3G, 3H, 3K, 3L) and empty vector pCAGGS (FIGS. 3G, 3K) or ISce1 plasmid (FIGS. 3H, 3L) versus EJ2 plasmid (FIGS. 3I, 3J, 3M, 3N) and pCAGGS (FIGS. 3I, 3M) or ISce1 plasmid (FIGS. 3J, 3N) and harvested after 48 h for analysis of GFP-positive cells by flow cytometry. Numbers in plots indicate percent GFP-positive cells. Experiments were performed 3 times.\n(§4) Newly-infected B cells and previously established EBV-LCL were grown in culture using conditions described (Koganti, S., et al. J Virol 88:516-524 (2014)). For experiments using AG490 and Olaparib, chemicals were added to cultures at time 0. For experiments using Olaparib, the drug was supplemented at the initial concentration every fourth day. For experiments using Bleomycin, the drug was added for an hour, following which cells were washed and placed back in culture."}, "[5]": {"test_system": "EBV+ BL cell lines (HH514-16, Akata, and Raji)", "assay": "Growth of EBV+ BL cell lines in the presence of Olaparib (live cell enumeration)", "type": "cell-based, human", "conditions": "Olaparib used alone, effect more pronounced than on LCL", "from_the_text": "as §3, §4"}}, "data": [{"smiles": "N#C/C(=C/c1ccc(O)c(O)c1)C(=O)NCc1ccccc1", "note": "[AG490]", "values": [{"measurement": "toxicity to EBV-infected B-cell lines", "setting": "[1]", "value": "minimally toxic"}, {"measurement": "percentages of GFP+ cells (HR repair competent)", "setting": "[2]", "value": "increased"}, {"measurement": "percentages of GFP+ cells (HR repair competent)", "setting": "[3]", "value": "increased"}, {"measurement": "inhibition of STAT3 phosphorylation", "setting": "STAT3 phosphorylation", "value": "selectively inhibit STAT3 phosphorylation"}]}, {"smiles": "O=C(c1cc(Cc2n[nH]c(=O)c3ccccc23)ccc1F)N1CCN(C(=O)C2CC2)CC1", "note": "[Olaparib]", "values": [{"measurement": "reduction in growth", "setting": "[4]", "value": "> 50", "unit": "%"}, {"measurement": "sensitivity to PARP inhibition (growth)", "setting": "[5]", "value": "exquisite sensitivity"}]}]}
